Laboratory results published in ChEMBL document CHEMBL5608169, “A chemical modification of a peroxisome proliferator-activated receptor pan agonist produced a shift to a new dual alpha/gamma partial agonist endowed with mitochondrial pyruvate carrier inhibition and antidiabetic properties” (Eur J Med Chem, 2024).
Calls of active or inactive are those of the source. No cut-off for these calls is given here.

Assays:
[1] = biological target: T1, Peroxisome proliferator-activated receptor delta (Homo sapiens, UniProt Q03181); test: Partial agonist activity at N-terminal Gal4-fused human PPARdelta LBD transfected in human HepG2 cells assessed as receptor transactivation incubated for 20 hrs by luciferase based luminometric assay; assay type: cell-based
T1 sequence (Q03181 whole entry): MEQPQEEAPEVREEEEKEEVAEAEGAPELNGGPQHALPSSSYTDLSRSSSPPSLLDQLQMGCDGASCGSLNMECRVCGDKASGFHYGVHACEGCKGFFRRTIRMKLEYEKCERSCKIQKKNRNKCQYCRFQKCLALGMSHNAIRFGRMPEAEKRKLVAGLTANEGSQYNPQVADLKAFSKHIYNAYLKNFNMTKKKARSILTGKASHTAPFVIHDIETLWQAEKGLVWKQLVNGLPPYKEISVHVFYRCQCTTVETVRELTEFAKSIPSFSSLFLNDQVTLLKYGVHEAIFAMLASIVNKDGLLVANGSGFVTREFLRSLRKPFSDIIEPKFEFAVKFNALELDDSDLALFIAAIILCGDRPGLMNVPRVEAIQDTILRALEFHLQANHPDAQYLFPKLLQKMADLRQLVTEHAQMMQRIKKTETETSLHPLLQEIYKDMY

HepG2 = test: Inhibition of lipid accumulation in oleic acid induced human HepG2 cells at 10 uM pretreated with oleic-acid for 24 hrs followed by compound addition and measured after 72 hrs by Oil Red O staining based analysis; assay type: functional, cell-based
C2C12 [2] = test: Inhibition of mitochondrial pyruvate carrier in mouse C2C12 cells assessed as increase of extracellular acidification rate at 10 uM incubated for 24 hrs by Seahorse XF pro analyzer; assay type: functional, cell-based
C2C12 [3] = test: Inhibition of mitochondrial pyruvate carrier in mouse C2C12 cells assessed as effect on oxygen consumption rate at 10 uM incubated for 24 hrs by Seahorse XF pro analyzer; assay type: functional, cell-based
C2C12 [4] = test: Inhibition of mitochondrial pyruvate carrier in mouse C2C12 cells assessed as effect on ATP production at 10 uM incubated for 24 hrs by Seahorse XF pro analyzer; assay type: functional, cell-based
C2C12 [5] = test: Inhibition of mitochondrial pyruvate carrier in mouse C2C12 cells assessed as increase in OCR/ECAR ratio at 10 uM incubated for 24 hrs by Seahorse XF pro analyzer; assay type: functional, cell-based
[6] = biological target: T2, Peroxisome proliferator-activated receptor alpha (Homo sapiens, UniProt Q07869); test: Partial agonist activity at N-terminal Gal4-fused human PPARalpha LBD transfected in human HepG2 cells assessed as receptor transactivation incubated for 20 hrs by luciferase based luminometric assay; assay type: cell-based
T2 sequence (Q07869 whole entry): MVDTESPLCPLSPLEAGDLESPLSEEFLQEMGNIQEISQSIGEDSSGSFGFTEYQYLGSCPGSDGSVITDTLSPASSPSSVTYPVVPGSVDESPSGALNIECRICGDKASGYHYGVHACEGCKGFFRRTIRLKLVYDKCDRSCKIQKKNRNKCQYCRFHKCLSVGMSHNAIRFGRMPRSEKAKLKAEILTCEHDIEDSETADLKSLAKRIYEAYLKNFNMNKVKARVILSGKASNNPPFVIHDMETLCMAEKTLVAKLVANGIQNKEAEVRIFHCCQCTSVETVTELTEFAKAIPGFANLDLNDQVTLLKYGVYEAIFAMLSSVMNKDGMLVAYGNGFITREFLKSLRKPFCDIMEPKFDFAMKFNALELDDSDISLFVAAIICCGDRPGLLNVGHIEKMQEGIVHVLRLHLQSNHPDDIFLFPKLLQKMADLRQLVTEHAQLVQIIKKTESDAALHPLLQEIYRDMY

[7] = biological target: T3, Peroxisome proliferator-activated receptor gamma (Homo sapiens, UniProt P37231); test: Partial agonist activity at N-terminal Gal4-fused human PPARgamma LBD transfected in human HepG2 cells assessed as receptor transactivation incubated for 20 hrs by luciferase based luminometric assay; assay type: cell-based
T3 sequence (P37231 whole entry): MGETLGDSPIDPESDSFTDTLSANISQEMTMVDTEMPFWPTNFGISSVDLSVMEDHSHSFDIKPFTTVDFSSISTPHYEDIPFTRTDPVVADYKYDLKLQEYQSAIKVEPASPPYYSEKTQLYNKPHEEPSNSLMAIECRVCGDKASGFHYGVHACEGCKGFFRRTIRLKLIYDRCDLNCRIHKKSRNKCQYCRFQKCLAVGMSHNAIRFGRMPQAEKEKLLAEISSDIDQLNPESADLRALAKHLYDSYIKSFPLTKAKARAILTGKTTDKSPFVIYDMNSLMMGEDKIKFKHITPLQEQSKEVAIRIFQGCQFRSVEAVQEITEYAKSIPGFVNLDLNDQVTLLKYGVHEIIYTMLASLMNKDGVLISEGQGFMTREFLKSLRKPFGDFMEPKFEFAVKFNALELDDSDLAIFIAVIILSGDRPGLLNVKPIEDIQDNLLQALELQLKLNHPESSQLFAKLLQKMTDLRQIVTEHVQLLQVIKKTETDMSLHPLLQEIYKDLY

Mus musculus [8] = test: Antihyperglycemic activity in STZ-induced diabetic Swiss albino mouse model assessed as fasting blood glucose at 30 mg/kg, po and measured immediately by glucose meter analysis (reference value: 365 +/-54.25 mg/dl); assay type: functional
Mus musculus [9] = test: Antihyperglycemic activity in STZ-induced diabetic Swiss albino mouse model assessed as fasting blood glucose at 30 mg/kg, po measured after 5 days by glucose meter analysis (reference value: […] +/- 63.77 mg/dl); assay type: functional; conditions: time 5 day
Mus musculus [10] = test: Antihyperglycemic activity in STZ-induced diabetic Swiss albino mouse model assessed as fasting blood glucose at 30 mg/kg, po measured after 10 days by glucose meter analysis (reference value: 435.2 +/-46.89 mg/dl); assay type: functional; conditions: time 10 day
Mus musculus [11] = test: Antihyperglycemic activity in STZ-induced diabetic Swiss albino mouse model assessed as fasting blood glucose at 30 mg/kg, po measured after 15 days by glucose meter analysis (reference value: 452.6 +/-48.94 mg/dl); assay type: functional; conditions: time 15 day
Mus musculus [12] = test: Antihyperglycemic activity in STZ-induced diabetic Swiss albino mouse model assessed as total cholesterol level at 30 mg/kg, po by biochemical analysis (reference value: 184.33 +/- […]); assay type: functional
Mus musculus [13] = test: Antihyperglycemic activity in STZ-induced diabetic Swiss albino mouse model assessed as high-density lipoprotein cholesterol level at 30 mg/kg, po by biochemical analysis (reference value: 43.33 +/-[…]); assay type: functional
Mus musculus [14] = test: Antihyperglycemic activity in STZ-induced diabetic Swiss albino mouse model assessed as low-density lipoprotein cholesterol level at 30 mg/kg, po by biochemical analysis (reference value: 113.33 +/- 0.35 mg/dl); assay type: functional
Mus musculus [15] = test: Antihyperglycemic activity in STZ-induced diabetic Swiss albino mouse model assessed as very low-density lipoprotein cholesterol level at 30 mg/kg, po by biochemical analysis (reference value: 27.77 +/- 0.15 mg/dl); assay type: functional
Mus musculus [16] = test: Antihyperglycemic activity in STZ-induced diabetic Swiss albino mouse model assessed as triglyceride level at 30 mg/kg, po by biochemical analysis (reference value: 139.33 +/- 0.88 mg/dl); assay type: functional

Structure (SMILES): CCCc1c(OCCCOc2ccc(OCC(=O)O)cc2)ccc(C(C)=O)c1O
- EC50 [1]: 1600 nM

Structure (SMILES): CN(CCOc1ccc(CC2SC(=O)NC2=O)cc1)c1ccccn1 (stereo not drawn)
- inhibition (HepG2): Active
- inhibition (C2C12 [2]): inactive
- inhibition (C2C12 [3]): inactive
- inhibition (C2C12 [4]): inactive
- inhibition (C2C12 [5]): inactive

Structure (SMILES): C[C@@H](Oc1ccc(-c2cccc3ccccc23)cc1)C(=O)O
- EC50 [6]: 2300 nM

Structure (SMILES): CC[C@@H](Oc1ccc(-c2cccc3ccccc23)cc1)C(=O)O.NC1CCCCC1
- EC50 [7]: 7300 nM
- EC50 [6]: 1420 nM

Structure (SMILES): CCc1ccc(CCOc2ccc(CC3SC(=O)NC3=O)cc2)nc1 (stereo not drawn) [PIOGLITAZONE]
- Activity (Mus musculus [8]): 441.2 mg/dL
- Activity (Mus musculus [9]): 351 mg/dL
- Activity (Mus musculus [10]): 248 mg/dL
- Activity (Mus musculus [11]): 224.2 mg/dL
- Activity (Mus musculus [12]): 88.67 mg/dL
- Activity (Mus musculus [13]): 19.67 mg/dL
- Activity (Mus musculus [14]): 20.5 mg/dL
- Activity (Mus musculus [15]): 19.33 mg/dL
- Activity (Mus musculus [16]): 98.33 mg/dL

Structure (SMILES): CC[C@H](Oc1ccc(-c2cccc3ccccc23)cc1)C(=O)O.NC1CCCCC1
- EC50 [7]: 11000 nM
- EC50 [6]: 183 nM

Structure (SMILES): CCC(Oc1ccc(-c2cccc3ccccc23)cc1)C(=O)O (racemic)
- EC50 [7]: 10000 nM
- EC50 [6]: 460 nM

Structure (SMILES): C[C@H](Oc1ccc(-c2cccc3ccccc23)cc1)C(=O)O
- EC50 [6]: 1800 nM
